Like-named read-outs stand apart in the source and are kept apart here.
Assays:
M. tb H37Ra bacilli = assay: microbe, parasite or virus in culture; format: cell-based, Mycobacterium tuberculosis H37Ra
[1] = system: mycobacterial serine protease (Seva TB ES-31); format: biochemical, Mycobacterium tuberculosis H37Ra
[2] = Mycobacterium tuberculosis, H37RA, read-out: % Inhibition on culture

Structure (SMILES): c1cnc2c(c1)ccc1cccnc12 [1,10 Phenanthroline]
- inhibition at 10 µM (M. tb H37Ra bacilli; [2]): 81%
- Inhibition (%) [1]: 78%
- Residual activity (%) [1]: 22.4 ± 0.47%
- serine protease enzyme activity, effect in words [1]: inhibited

Structure (SMILES): O=c1oc(Cl)c(Cl)c2ccccc12 [3,4-Dichloroisocoumarin]
- inhibition at 0.2 µM (M. tb H37Ra bacilli; [2]): 85%
- serine protease enzyme activity, effect in words [1]: inhibited
- Inhibition (%) ([1]; 10 µM): 90%
- Residual activity (%) ([1]; 10 µM): 9.84 ± 0.07%

Structure (SMILES): CC[C@@H](CO)NCCN[C@@H](CC)CO [EMB, ethambutol]
- Effect on H37Ra culture (LJ slant/Sautons' medium) (M. tb H37Ra bacilli): No Growth
- bacillary growth on LJ slant and in Sautons' broth, effect in words (M. tb H37Ra bacilli): inhibition of bacillary growth
- % Inhibition of Serine protease [1]: 70%
- serine protease enzyme activity, effect in words [1]: inhibited

Structure (SMILES): O=C(O)CN(CCN(CC(=O)O)CC(=O)O)CC(=O)O [Ethylene diamine tetracetic acid (EDTA), Ethylene diamine tetracetic acid]
- Inhibition (%) [1]: 65%
- Residual activity (%) [1]: 35.3 ± 0.89%
- serine protease enzyme activity, effect in words [1]: inhibited

Structure (SMILES): NNC(=O)c1ccncc1 [INH, isoniazid]
- Effect on H37Ra culture (LJ slant/Sautons' medium) (M. tb H37Ra bacilli): No Growth
- bacillary growth on LJ slant and in Sautons' broth, effect in words (M. tb H37Ra bacilli): inhibition of bacillary growth
- % Inhibition of Serine protease [1]: 85%
- inhibition of serine protease activity [1]: 85%
- serine protease enzyme activity, effect in words [1]: inhibited

Structure (SMILES): NC(=O)c1cnccn1 [PZA]
- % Inhibition of Serine protease [1]: 0%

Structure (SMILES): Cl.NCCc1ccc(S(=O)(=O)F)cc1 [Pefabloc]
- % Inhibition on culture (M. tb H37Ra bacilli; 10 µM): 88%
- Inhibition (%) [1]: 92%
- Residual activity (%) [1]: 7.56 ± 0.07%
- serine protease enzyme activity, effect in words [1]: inhibited

Structure (SMILES): O=S(=O)(F)Cc1ccccc1 [Phenyl methyl sulphonyl fluoride (PMSF), Phenyl methyl sulphonyl fluoride]
- % Inhibition on culture (M. tb H37Ra bacilli; 20 µM): 72%
- Inhibition (%) [1]: 80%
- Residual activity (%) [1]: 19.6 ± 0.2%
- serine protease enzyme activity, effect in words [1]: inhibited

Structure (SMILES): [H]/N=C(/N)N[C@H]1[C@H](O)[C@@H](O)[C@H](O[C@@H]2O[C@@H](C)[C@](O)(C=O)[C@H]2O[C@@H]2O[C@@H](CO)[C@H](O)[C@@H](O)[C@@H]2NC)[C@@H](N/C(N)=N\[H])[C@@H]1O [SM, streptomycin]
- Effect on H37Ra culture (LJ slant/Sautons' medium) (M. tb H37Ra bacilli): No Growth
- bacillary growth on LJ slant and in Sautons' broth, effect in words (M. tb H37Ra bacilli): inhibition of bacillary growth
- % Inhibition of Serine protease [1]: 30%
- serine protease enzyme activity, effect in words [1]: inhibited

Source: patent US20090011442A1, “TB diagnostics based on mycobacterium tuberculosis excretory secretory antigens and their specific immunoglobulins” (priority 2007, published 2009)
